From patent US20240336566A1, “CRYSTALLINE FORMS OF A COMPOUND FOR THE TARGETED DEGRADATION OF THE ANDROGEN RECEPTOR” (Arvinas Operations, Inc., priority 2023, published 2024)
≈ marks a conversion by molar mass, not a printed value.

Columns and labels:
Format in all cases: physicochemical
[1] = Dynamic vapour sorption (DVS) with XRPD of retained solid
Experimental: 10-20 mg of sample was placed into a mesh vapour sorption balance pan and loaded into a DVS-1 dynamic vapour sorption balance by Surface Measurement Systems. The sample was subjected to a ramping profile from 40-90% relative humidity (RH) at 10% increments, maintaining the sample at each step until a stable weight had been achieved (dm/dt 0.004%, minimum step length 30 minutes, maximum step length 500 minutes) at 25° C. After completion of the sorption cycle, the sample was dried using the same procedure to 0% RH and then a second sorption cycle back to 40% RH. Two cycles were performed. The weight change during the sorption/desorption cycles were plotted, allowing for the hygroscopic nature of the sample to be determined. XRPD analysis was then carried out on any solid retained.

[2] = Competitive slurry experiments of free base Patterns 1, 2 and 6 (XRPD); conditions: slurries of Patterns 1, 2 and 6; ambient or 40° C.
Experimental: XRPD analysis of the second set of competitive slurry experiments was carried out on a Philips X'Pert Pro Multipurpose diffractometer equipped with a spinning stage autosampler. The samples were scanned between 5 and 34.997 °2θ using Cu K radiation (α1γ=1.54060 Å; α2=1.54443 Å; β=1.39225 Å; α1:α2 ratio=0.5) running in Bragg-Brentano geometry (step size 0.008 °2θ, step time 10.160 s, rotation period 2 s) using 40 kV/40 mA generator settings. Data were visualized and images generated using the HighScore Plus 4.7 desktop application (PANalytical, 2θ17).
• Eight samples were prepared containing 10 mg of free base Patterns 1, 2, and 6. • The appropriate solvent systems were added and observations were noted. • After shaking at either ambient or 40° C., observations were noted and the samples were filtered centrifugally. The solids obtained were analyzed by XRPD.
• Due to inconclusive results, the solids were returned to the sample vials and 100 μL of the appropriate solvent was added to each sample. The samples were then capped and sealed by parafilm and shaken at ambient or 40° C. as before. • After shaking for 72 hours, the solids were analyzed by XRPD. […]

[3] = Heating experiment of Compound A free base Pattern 1 (1H NMR after heating to 250° C.); conditions: heated to 250° C. using the TG/DSC
[4] = Thermodynamic solubility determination in buffers (HPLC)
Description: No clear solubility advantage of the salts was noted over Compound A free base.

[5] = 7-day stability assessment (appearance, HPLC, XRPD)
Experimental: The material was gently ground to release any agglomerates and loaded onto a multi-well plate with Kapton or Mylar polymer film to support the sample. […] Data were visualized and images generated using the HighScore Plus 4.7 desktop application (PANalytical, 2θ17).
They all remained white or off-white solids. • XRPD analysis determined the patterns were retained.

[6] = Buffer pH 1.2, 25° C., cf concentration of free base, listed as Compound A Free Base Pattern 1
[7] = Buffer pH 3.0, 25° C., LOQ 0.00025 mg/mL
[8] = buffer, 25 °C, pH 4, aqueous buffer, thermodynamic from solid, Buffer pH 4.0, LOQ 0.00025 mg/mL
[9] = 7 days at 40° C./75% RH (open vial)
[10] = 7 days at Ambient light (closed vial)

COc1cc(O[C@H]2C(C)(C)[C@H](NC(=O)c3ccc(N4CCC(CN5CCN(c6ccc(C(=O)N[C@H]7CCC(=O)NC7=O)c(F)c6)CC5)CC4)cc3)C2(C)C)ccc1C#N [free base Pattern 1]
DVS hygroscopicity [1]: Slightly hygroscopic
Form change after DVS [1]: No
form by XRPD post DVS [1]: no form change
hygroscopic nature (DVS) ([1]; 25° C.): slightly hygroscopic
mass uptake of water (DVS) ([1]; RH not stated at the place): 1.17 wt. %
mass uptake of water (DVS), equivalents ([1]; RH not stated at the place): 0.53 eq.
DVS water uptake ([1]; at 90% RH): 1.17 wt. %
DVS water uptake (equivalents of water) ([1]; at 90% RH): 0.53 eq.
relative stability of forms (competitive slurry) [2]: thermodynamic form
degradation after heating (1H NMR) [3]: had not degraded
0 Hr Solubility [4, 6]: 0.1 µg/mL
4 Hr Solubility [4, 6]: 26.2 µg/mL
24 Hr Solubility [4, 6]: 69.3 µg/mL
0 Hr Solubility [4, 7]: <0.25 µg/mL
4 Hr Solubility [4, 7]: <0.25 µg/mL
24 Hr Solubility [4, 7]: <0.25 µg/mL
solubility at 0 h [4, 8]: < 0.25 µg/mL
solubility at 4 h [4, 8]: < 0.25 µg/mL
solubility at 24 h [4, 8]: < 0.25 µg/mL
thermodynamic solubility ([4]; pH 1.2, after 24 hours, 25° C., as concentration of Compound A free base): 69.3 µg/mL (≈ 85.8 µM)
HPLC purity [5, 9]: 99.00 % relative area
XRPD after stability storage [5, 9]: No change
HPLC purity ([5]; 7 days at 40° C./75% RH (open vial), listed as Free base Pattern 1): 99.00 % relative area
HPLC purity ([5]; 7 days at 80° C. (closed vial)): 99.03 % relative area
XRPD after stability storage ([5]; 7 days at 80° C. (closed vial)): No change
HPLC purity ([5]; 7 days at 80° C. (closed vial), listed as Free base Pattern 1): 99.03 % relative area
HPLC purity [5, 10]: 99.07 % relative area
XRPD after stability storage [5, 10]: No change
HPLC purity ([5]; 7 days at Ambient light (closed vial), listed as Free base Pattern 1): 99.07 % relative area
Total impurities (HPLC) ([5]; after 7 days at 40° C./75% RH): 1.00 Rel. Area %
purity retained after stability storage (HPLC) ([5]; after 7 days at 40° C./75% RH (open vial), 80° C. (closed vial), ambient light (closed vial)): > 99 % relative area
Total impurities (HPLC) ([5]; after 7 days at 80° C.): 0.97 Rel. Area %
Total impurities (HPLC) ([5]; after 7 days at ambient): 0.93 Rel. Area %
Total impurities (HPLC) ([5]; before stability testing): 0.99 Rel. Area %
HPLC purity ([5]; before stability testing (condition N/A)): 99.01 % relative area
HPLC purity ([5]; before stability testing (condition N/A), listed as Free base Pattern 1): 99.01 % relative area
